# Reference: US9566341B1, “Compounds including Cox inhibitor moiety and enhanced delivery of active drugs using same” (University of Kentucky Research Foundation, priority 2011, dated 2017)
# Where a name gives a salt, the structure may show the parent alone.
# Tests used:
# [1] = Chemical stability in 0.3M acetate buffer pH 5.0 at 32° C.; assay type: physicochemical
# Excerpt: The chemical stability of the prodrugs to hydrolysis and solvolysis at the appropriate temperatures will be determined by measuring concentrations over time in the buffers and solvents used in the solubility and diffusion studies. Chemical degradation rate constants will be important in distinguishing enzymatic degradation from non-enzymatic degradation. Codrug enzymatic metabolism rate constants can also be determined in skin homogenates, to ascertain if the values are useful in the QSPR multiple regression analysis. The kinetics of codrug enzymatic degradation in skin homogenates will be done using abdominal plastic surgery samples. Enzymatic reaction rates will be determined at several different codrug concentrations. The skin is homogenized (Polytron tissue homogenizer and ground glass homogenizer fitted with a glass pestle) in HEPES-buffered Hanks' balanced salt solution and the supernatant is obtained. The enzymatic hydrolysis rates are determined in the homogenate at 37° C. The codrug and its metabolites will be obtained by solid-phase extraction, or another appropriate extraction method. Naltrexone and any other metabolite formed will be assayed by HPLC and expressed as moles of metabolite per minute per milligram of protein. Protein concentrations in the supernatant will be measured by the Bradford method. Controls containing only codrug and HEPES-buffered Hanks' balanced salt solution at 37° C. will also be monitored to determine non-enzymatic hydrolysis.
# Chemical and enzymatic stability was determined for the codrugs. For chemical stability studies, the codrug was put in prewarmed 0.3M acetate buffer pH 5.0 after solubilization in <5% ACN, if required, at 32° C. in an incubator. Samples were withdrawn at regular intervals and injected into the HPLC after appropriate dilutions. Enzymatic stability studies are important for estimation of conversion of codrugs in the plasma. […] All stability data was analyzed using pseudo first order kinetics. […]
# [2] = In vitro diffusion study across microneedle-treated full thickness Yucatan miniature pig skin; assay type: in vitro ADME; settings: 10% PG containing saturated donor formulation
# Experimental: For all in vitro experiments female Yucatan minipig skin (6 months old) were used. Skin sections were obtained by removing the subcutaneous fatty tissue by scalpel dissection, and were stored at −20° C. A PermeGear flow-through (In-Line, Riegelsville, Pa., USA) diffusion cell system was used for the skin permeation studies.
# The skin was pierced 20 times with an array containing 5 MN (i.e., to make a total of 100 individual and non-over lapping piercings) before mounting the skin in the diffusion cell for the treatment group. The insertion of MN into skin was carried out manually by applying gentle finger pressure followed by instantaneous removal. MN's were distributed evenly within the 0.95 cm^2 area of skin and could easily be visualized after each 5 MN insertion, as to prevent reapplication in the same area. Single MN array of 5 were used simply out of ease for the experimental procedure. If any damage to an MN section was observed the section was replaced. […] Untreated skin samples were simply placed in the diffusion cells. Diffusion cells were kept at 32° C. using a circulating water bath. Data were collected using skin from a single pig 3-4 cells for the MN treated formulations.
# The physiological receiver solution was water adjusted to pH 7.4 containing 20% ethanol, and the flow rate was adjusted to 1.5 ml/h. Each cell was charged with 0.25 ml of the donor in the donor compartment of the chamber. The diffusion cells were covered with a stopper to prevent evaporation. Samples were collected from the receiver compartment in six-hour increments over 48 h or for the length of the treatment. All samples were stored at 4° C. until analyzed by HPLC.
# The in vitro permeation experiments were carried out to determine the transdermal flux of the parent drugs and the codrug, permeation coefficients as well as the concentration of the drug molecules in the skin at the end of the study. For all in vitro experiments Yucatan miniature pig (YP) skin was used. Full thickness skin was obtained by removing the subcutaneous fatty tissue by scalpel dissection, and stored at −20° C. A PermeGear flow-through (In-Line, Riegelsville, Pa., USA) diffusion cell system was used for the skin permeation studies. […] The skin was pierced 20 times with a 5 MN array (making 100 individual and non-over lapping piercings) before mounting the skin in the diffusion cell. MN pores were distributed evenly within the 0.95 cm^2 area of skin. Untreated skin samples were mounted directly onto the diffusion cells. The setup was maintained at 32° C. using a circulating water bath. Data collected using a minimum of 3-4 cells per treatment group. The receiver solution was water alkalified to pH 7.4 containing 20% ethanol at 37° C. Gentamycin sulfate (50 mg/L) was added to the receiver for 7 day studies as an antibacterial agent. The receiver flow rate was adjusted to 1.5 ml/h to maintain skin conditions. Each cell was charged with 0.25 ml of the donor and the diffusion cells were covered with a stopper to prevent evaporation of formulation. Samples were collected at regular increments over 48 hours or for the length of the treatment. Drug was concentrated 10 fold by evaporating 1 ml of the collected sample under nitrogen and reconstituting in 100 μl of ACN for quantification. All samples were stored at 4° C. until analyzed by HPLC. The skin was removed at the end of the study and the treatment area was diced into small pieces using a scalpel after removing all excess drugs from top of the skin. Drug was extracted out by immersing the skin pieces in ACN overnight in a shaker water bath at 32° C. Samples were injected into the HPLC after appropriate dilution for quantitative analysis. The donor was also removed and quantified at the end of the study by direct injection onto HPLC after suitable dilution using ACN. All data was analyzed using Fick's first law of diffusion. […]
# [3] = tested on: hairless guinea pig micropores; test: In vivo micropore visualization by gentian violet/India ink staining after MN treatment; settings: MN followed by NTX HCl gel under occlusion
# Excerpt: The patches were removed at predetermined time points and the site was cleaned with sterile gauze. Gentian violet/India ink was applied as the dyeing agent at the MN treated sites and allowed to dry before excess dye was removed with ethanol and gauze. Both the dyes stain the viable epidermis but not the intact SC. […] The donor was removed from the top of the skin at the end of the study and analyzed by direct injection onto HPLC after suitable dilution using ACN.
# All animal experiments were approved by the University of Kentucky IACUC. A proof of concept in vivo experiment was carried out. 4% w/w gels were prepared with the hydrochloride salt form of the codrug. Gels were formulated by dissolving 4% codrug salt in PG: buffer at pH 5.0=10:90 and 3.0% hydroxyethylcellulose (HEC) polymer (required to have a gel formulation). Polymer was dissolved over a 30 minute period to obtain a homogenous gel. The solution was stirred until a viscous gel resulted and then left at room temperature for 1½ to 2 hours to remove bubbles and ensure complete polymerization. The gel was saturated with excess solid and therefore was cloudy. MN treated animals were first cleaned topically with isopropyl alcohol, and 50 MN array was applied twice mutually perpendicular to each other to give a total of 100 pores at each site. 0.3 mL gel doses were applied to the dorsal region of the HGP. After application of the gel the skin was occluded with the occlusive patch and biocclusive tape was applied to prevent evaporation of the formulation. The patch was changed with new formulation at 3.5 days such that more than 50% intact codrug was always present in formulation. […] The patches were removed to obtain data at successive 24 h time intervals.
# The patches were removed at predetermined time points and the site was cleaned with sterile gauze. Gentian violet/India ink was applied as the dyeing agent at the MN treated sites and allowed to dry before excess dye was removed with ethanol and gauze. Both the dyes stain the viable epidermis but not the intact SC.
# [4] = Micromedex 1.0, as fraction; cited from earlier work
smiles,measurement,setting,value
O=C(Cc1ccccc1Nc1c(Cl)cccc1Cl)OC1CCC2(O)C3Cc4ccc(O)c5c4C2(CCN3CC2CC2)C1O5 (stereo not drawn) [Compound 2B],Chemical stability,[1],56.3 ± 9.5 days
same,naltrexol flux,[2],approximately 0.29±0.09 nmol/cm^2/h
O=C(Cc1ccccc1Nc1c(Cl)cccc1Cl)O[C@@H]1CC[C@@]2(O)[C@H]3Cc4ccc(O)c5c4[C@@]2(CCN3CC2CC2)C1O5 (stereo partly drawn) [Compound 2B],half-life,"[1]; buffer pH 5.0, 32° C.",~56.3 days
"O=C1CC[C@@]2(O)[C@H]3Cc4ccc(O)c5c4[C@@]2(CCN3CC2CC2)[C@H]1O5 [NTX HCl, Naltrexone Hydrochloride, reference compound]",pore visualization at day 4 (96 h),[3],cannot be visualized
"Oc1ccc2c3c1O[C@H]1[C@H](O)CC[C@@]4(O)[C@@H](C2)N(CC2CC2)CC[C@]314 [NTXOL, 6-β-Naltrexol, reference compound]",naltrexol flux,[2],3.07±0.27 nmol/cm^2/h
"O=C(O)Cc1ccccc1Nc1c(Cl)cccc1Cl [diclofenac, Diclofenac]",oral bioavailability,[4],0.55
